Source: patent publication US20240229063A1, “TRANSGENIC CORN EVENT ZM_CSM63715 AND METHODS FOR DETECTION AND USES THEREOF” (Monsanto Technology LLC, priority 2022, published 2024)

Tested on: Cas 12a gRNA target sites on Zea mays B73 chromosome 8
Test: gRNA target site editing rate by Fragment Length Analysis in stably transformed corn plants
Type: in vivo
Conditions: LbCas12a; for Number of Plants with Target Site Edits: stably transformed corn plants
Source text: Agrobacterium T-DNA vectors were designed to evaluate gRNA and LbCas12a nuclease mediated cleavage at the selected target sites. Each T-DNA vector comprised 3 cassettes. The first cassette comprised a plant codon optimized LbCas12a (SEQ ID NO:33) flanked by the same nuclear localization signal sequence (NLS) at the 5′ and 3′ ends (SEQ ID:191), and was operably linked to Zea mays Ubiquitin promoter (SEQ ID NO:192) and a 3′UTR sequence from a rice lipid transfer protein (LTP) gene (SEQ ID NO:193). The second cassette was a unique gRNA cassette targeting one of the 17 targeting sites described in Table 5. The cassette comprised a Zea mays Pol III promoter operably linked to a Cas12a gRNA unit. […] The third cassette was an EPSPS expression cassette encoding a 5-enolpyruvylshikimate-3-phosphate synthase as a selectable marker for selecting transformants in the present of glyphosate.
Corn embryo explants were transformed with the vectors described above by Agrobacterium-mediated transformation. Transformed plants were selected on glyphosate. Leaf samples from regenerated plantlets were harvested, and genomic DNA was extracted for Fragment Length Analysis (FLA). […] The amplicon fragment lengths were subsequently analyzed using capillary electrophoresis, and compared to a wildtype amplicon to identify mutants that had larger or smaller amplicons due to the presence of indels. […] One μl of the PCR product was combined with 0.5 μl of the GeneScan 1200 LIZ Size Standard (Thermo Fisher, MA), 8.5 μl of formamide, and ran on ABI3730 sequencer (Thermo Fisher, MA) to detect amplicon size and analyzed for fragment length variation to identify plants with mutations at the target sites. […] NA denotes that a transformation was performed, but was not successful. gRNA activity was determined by calculating the percentage of plants that contained a target site indel edit out of the total number of plants examined.

ZmTS1: LbCas12a gRNA targeting site ZmTS1 (target SEQ ID NO 174, spacer SEQ ID NO 195) (guide ACCGACTTGGGCATATATTATTT; gRNA scaffold not given here)
Target Editing Rate (percentage of plants with a target site indel edit out of plants examined): 11%
Number of Plants with Target Site Edits: 16

ZmTS10: LbCas12a gRNA targeting site ZmTS10 (target SEQ ID NO 183, spacer SEQ ID NO 204) (guide CCACAAGGCTATTCACTCCCTAT; gRNA scaffold not given here)
Number of Plants with Target Site Edits: 32
